≈ marks a conversion by molar mass, not a printed value.
Experiments:
Format in all cases: functional
Candida tropicalis = assay: Antifungal activity against Candida tropicalis GIM2.183 assessed as inhibition of fungal growth by NCCLS protocol based method
Candida albicans [1] = assay: Antifungal activity against Candida albicans SC5314 assessed as inhibition of fungal growth by NCCLS protocol based method
Aspergillus fumigatus = assay: Antifungal activity against Aspergillus fumigatus CGMCC3.7795 assessed as inhibition of fungal growth by NCCLS protocol based method
Candida albicans [2] = assay: Antifungal activity against Candida albicans GIM2.194 assessed as inhibition of fungal growth by NCCLS protocol based method
Candida albicans [3] = assay: Antifungal activity against fluconazole resistant Candida albicans CaR assessed as inhibition of fungal growth by NCCLS protocol based method
Pichia kudriavzevii = assay: Antifungal activity against Candida krusei GIM2.1 assessed as inhibition of fungal growth by NCCLS protocol based method
Candida parapsilosis = assay: Antifungal activity against Candida parapsilosis GIM2.190 assessed as inhibition of fungal growth by NCCLS protocol based method; conditions: Lodderomyces parapsilosis
Candida albicans [4] = assay: Antifungal activity against fluconazole and itraconazole resistant Candida albicans 17# assessed as inhibition of fungal growth by NCCLS protocol based method
Cryptococcus neoformans [5] = assay: Antifungal activity against Cryptococcus neoformans GIM2.209 assessed as inhibition of fungal growth by NCCLS protocol based method
Candida albicans [6] = assay: Antifungal activity against Candida albicans CPCC400523 assessed as inhibition of fungal growth by NCCLS protocol based method
Cryptococcus neoformans [7] = assay: Antifungal activity against Cryptococcus neoformans CGMCC2.3161 assessed as inhibition of fungal growth by NCCLS protocol based method

SMILES | MIC (Candida tropicalis) | MIC (Candida albicans [1]) | MIC (Aspergillus fumigatus) | MIC (Candida albicans [2]) | MIC (Pichia kudriavzevii) | MIC (Candida parapsilosis) | MIC (Cryptococcus neoformans [5]) | MIC (Candida albicans [6]) | MIC (Cryptococcus neoformans [7]) | MIC (Candida albicans [3]) | MIC (Candida albicans [4])
Fc1ccccc1-c1ccc(C2=NC(Cn3cncn3)(c3ccc(Cl)cc3)CO2)cc1 (centres undefined) | 0.06 µg/mL (≈ 0.139 µM) | < 0.03 µg/mL | > 64 µg/mL | < 0.03 µg/mL | 0.25 µg/mL (≈ 0.578 µM) | 4 µg/mL (≈ 9.24 µM) | – | – | – | 0.25 µg/mL (≈ 0.578 µM) | > 64 µg/mL
Fc1ccc(C2(Cn3cncn3)COC(c3ccc(-c4ccccc4F)cc3)=N2)c(F)c1 (centres undefined) | 0.06 µg/mL (≈ 0.138 µM) | < 0.03 µg/mL | > 64 µg/mL | 0.06 µg/mL (≈ 0.138 µM) | 0.25 µg/mL (≈ 0.575 µM) | 4 µg/mL (≈ 9.21 µM) | – | – | – | 0.5 µg/mL (≈ 1.15 µM) | > 64 µg/mL
Fc1cccc(-c2ccc(C3=NC(Cn4cncn4)(c4cccc(F)c4)CO3)cc2)c1 (centres undefined) | 0.25 µg/mL (≈ 0.6 µM) | 0.06 µg/mL (≈ 0.144 µM) | > 64 µg/mL | 0.06 µg/mL (≈ 0.144 µM) | > 64 µg/mL | > 64 µg/mL | – | – | – | > 64 µg/mL | > 64 µg/mL
Clc1cccc(-c2ccc(C3=NC(Cn4cncn4)(c4ccccc4)CO3)cc2)c1 (centres undefined) | > 16 µg/mL | > 16 µg/mL | > 64 µg/mL | > 16 µg/mL | > 64 µg/mL | > 64 µg/mL | – | – | – | – | –
FC(F)(F)Oc1ccc(-c2ccc(C3=NC(Cn4cncn4)(c4ccccc4)CO3)cc2)cc1 (centres undefined) | > 16 µg/mL | > 16 µg/mL | > 64 µg/mL | > 16 µg/mL | > 64 µg/mL | > 64 µg/mL | – | – | – | – | –
O=C(c1ccccc1)C1(Cn2ccnc2)COC(c2ccc(-c3ccccc3)cc2)=N1 (centres undefined) | > 64 µg/mL | 0.5 µg/mL (≈ 1.23 µM) | > 64 µg/mL | > 64 µg/mL | – | – | > 64 µg/mL | – | – | – | –
CN(C)C(=O)C(Cn1ccnc1)NC(=O)c1ccc(-c2ccccc2)cc1 (centres undefined) | – | 4 µg/mL (≈ 11 µM) | > 64 µg/mL | – | – | – | – | > 64 µg/mL | > 64 µg/mL | – | –
Clc1ccc(-c2ccc(C3=NC(Cn4cncn4)(c4ccccc4)CO3)cc2)cc1 (centres undefined) | > 16 µg/mL | > 16 µg/mL | > 64 µg/mL | > 16 µg/mL | > 64 µg/mL | > 64 µg/mL | – | – | – | – | –
Fc1cc(F)cc(-c2ccc(C3=NC(Cn4cncn4)(c4ccccc4)CO3)cc2)c1 (centres undefined) | > 16 µg/mL | > 16 µg/mL | > 64 µg/mL | > 16 µg/mL | > 64 µg/mL | > 64 µg/mL | – | – | – | – | –
CC(C)(O)C(Cn1ccnc1)NC(=O)c1ccc(-c2ccccc2)cc1 (centres undefined) | – | 8 µg/mL (≈ 22.9 µM) | > 64 µg/mL | – | – | – | – | > 64 µg/mL | > 64 µg/mL | – | –
CC(C)C1OC(c2ccc(-c3ccccc3)cc2)=NC1Cn1ccnc1 (centres undefined) | < 0.125 µg/mL | 0.5 µg/mL (≈ 1.45 µM) | > 64 µg/mL | > 64 µg/mL | – | – | > 64 µg/mL | – | – | – | –
O=C(c1ccc(-c2ccccc2)cc1)N1CCC[C@H]1Cn1ccnc1 | – | 16 µg/mL (≈ 48.3 µM) | 8 µg/mL (≈ 24.1 µM) | – | – | – | – | 32 µg/mL (≈ 96.6 µM) | > 64 µg/mL | – | –
FC(F)(F)c1ccc(-c2ccc(C3=NC(Cn4cncn4)(c4ccccc4)CO3)cc2)cc1 (centres undefined) | > 16 µg/mL | > 16 µg/mL | > 64 µg/mL | > 16 µg/mL | > 64 µg/mL | > 64 µg/mL | – | – | – | – | –
c1ccc(-c2ccc(C3=N[C@H](Cn4ccnc4)CO3)cc2)cc1 | – | > 64 µg/mL | > 64 µg/mL | – | – | – | – | > 64 µg/mL | > 64 µg/mL | – | –
CC1(Cn2ccnc2)COC(c2ccc(-c3ccccc3)cc2)=N1 (centres undefined) | 4 µg/mL (≈ 12.6 µM) | 2 µg/mL (≈ 6.3 µM) | 0.5 µg/mL (≈ 1.58 µM) | 8 µg/mL (≈ 25.2 µM) | – | – | > 64 µg/mL | – | – | – | –
N#Cc1ccc(-c2ccc(C3=NC(Cn4cncn4)(c4ccccc4)CO3)cc2)cc1 (centres undefined) | > 16 µg/mL | > 16 µg/mL | > 64 µg/mL | > 16 µg/mL | > 64 µg/mL | > 64 µg/mL | – | – | – | – | –
c1ccc(-c2ccc(C3=NC(Cn4ccnc4)C(c4ccccc4)O3)cc2)cc1 (centres undefined) | > 64 µg/mL | > 64 µg/mL | > 64 µg/mL | > 64 µg/mL | – | – | > 64 µg/mL | – | – | – | –
O=C(NC(Cn1ccnc1)C1COC1)c1ccc(-c2ccccc2)cc1 (centres undefined) | – | 8 µg/mL (≈ 23 µM) | > 64 µg/mL | – | – | – | – | > 64 µg/mL | > 64 µg/mL | – | –
c1ccc(-c2ccc(C3=NC(Cn4cnnn4)(c4ccccc4)CO3)cc2)cc1 (centres undefined) | > 16 µg/mL | > 16 µg/mL | > 64 µg/mL | > 16 µg/mL | > 64 µg/mL | > 64 µg/mL | – | – | – | – | –
Clc1ccccc1-c1ccc(C2=NC(Cn3cncn3)(c3ccccc3)CO2)cc1 (centres undefined) | > 16 µg/mL | > 16 µg/mL | > 64 µg/mL | > 16 µg/mL | > 64 µg/mL | > 64 µg/mL | – | – | – | – | –
C[C@H]1OC(c2ccc(-c3ccccc3)cc2)=N[C@H]1Cn1ccnc1 | 4 µg/mL (≈ 12.6 µM) | > 64 µg/mL | > 64 µg/mL | > 64 µg/mL | – | – | > 64 µg/mL | – | – | – | –
O=C(c1ccc(-c2ccccc2)cc1)N1CCC[C@@H]1Cn1ccnc1 | – | > 64 µg/mL | > 64 µg/mL | – | – | – | – | > 64 µg/mL | > 64 µg/mL | – | –

Second part, led by results:

MIC (Candida tropicalis) | MIC (Candida albicans [1]) | MIC (Aspergillus fumigatus) | MIC (Candida albicans [2]) | MIC (Pichia kudriavzevii) | MIC (Candida parapsilosis) | MIC (Cryptococcus neoformans [5]) | MIC (Candida albicans [6]) | MIC (Cryptococcus neoformans [7]) | SMILES | MIC (Candida albicans [3]) | MIC (Candida albicans [4])
> 16 µg/mL | 0.06 µg/mL (≈ 0.138 µM) | > 64 µg/mL | > 16 µg/mL | > 64 µg/mL | > 64 µg/mL | – | – | – | Fc1cc(F)cc(C2(Cn3cncn3)COC(c3ccc(-c4ccccc4F)cc3)=N2)c1 (centres undefined) | – | –
< 0.125 µg/mL | < 0.125 µg/mL | > 64 µg/mL | > 64 µg/mL | – | – | > 64 µg/mL | – | – | FC(F)(c1ccccc1)C1(Cn2ccnc2)COC(c2ccc(-c3ccccc3)cc2)=N1 (centres undefined) | – | –
0.06 µg/mL (≈ 0.151 µM) | < 0.03 µg/mL | > 64 µg/mL | < 0.03 µg/mL | 0.5 µg/mL (≈ 1.25 µM) | 16 µg/mL (≈ 40.2 µM) | – | – | – | Fc1ccccc1-c1ccc(C2=NC(Cn3cncn3)(c3ccccc3)CO2)cc1 (centres undefined) | – | –
0.06 µg/mL (≈ 0.151 µM) | < 0.03 µg/mL | > 64 µg/mL | < 0.03 µg/mL | < 0.125 µg/mL | 16 µg/mL (≈ 40.2 µM) | – | – | – | Fc1cccc(-c2ccc(C3=NC(Cn4cncn4)(c4ccccc4)CO3)cc2)c1 (centres undefined) | – | –
0.06 µg/mL (≈ 0.158 µM) | < 0.03 µg/mL | 2 µg/mL (≈ 5.26 µM) | < 0.03 µg/mL | 0.25 µg/mL (≈ 0.657 µM) | 0.25 µg/mL (≈ 0.657 µM) | – | – | – | c1ccc(-c2ccc(C3=NC(Cn4cncn4)(c4ccccc4)CO3)cc2)cc1 (centres undefined) | – | –
0.06 µg/mL (≈ 0.151 µM) | < 0.03 µg/mL | > 64 µg/mL | 0.06 µg/mL (≈ 0.151 µM) | > 64 µg/mL | 16 µg/mL (≈ 40.2 µM) | – | – | – | Fc1cc(-c2ccccc2)ccc1C1=NC(Cn2cncn2)(c2ccccc2)CO1 (centres undefined) | – | –
> 16 µg/mL | 0.06 µg/mL (≈ 0.138 µM) | > 64 µg/mL | > 16 µg/mL | > 64 µg/mL | > 64 µg/mL | – | – | – | Fc1cccc(-c2ccc(C3=NC(Cn4cncn4)(c4cc(F)cc(F)c4)CO3)cc2)c1 (centres undefined) | – | –
< 0.125 µg/mL | < 0.03 µg/mL | < 0.125 µg/mL | < 0.125 µg/mL | < 0.125 µg/mL | < 0.125 µg/mL | < 0.125 µg/mL | < 0.125 µg/mL | < 0.125 µg/mL | CCC(C)n1ncn(-c2ccc(N3CCN(c4ccc(OCC5COC(Cn6cncn6)(c6ccc(Cl)cc6Cl)O5)cc4)CC3)cc2)c1=O (centres undefined) [ITRACONAZOLE] | – | –
0.06 µg/mL (≈ 0.151 µM) | < 0.03 µg/mL | > 64 µg/mL | < 0.03 µg/mL | 0.5 µg/mL (≈ 1.25 µM) | 4 µg/mL (≈ 10 µM) | – | – | – | Fc1cc(C2=NC(Cn3cncn3)(c3ccccc3)CO2)ccc1-c1ccccc1 (centres undefined) | – | –
0.5 µg/mL (≈ 1.27 µM) | < 0.125 µg/mL | > 64 µg/mL | 0.5 µg/mL (≈ 1.27 µM) | – | – | > 64 µg/mL | – | – | c1ccc(CC2(Cn3ccnc3)COC(c3ccc(-c4ccccc4)cc3)=N2)cc1 (centres undefined) | – | –
> 16 µg/mL | 0.06 µg/mL (≈ 0.139 µM) | > 64 µg/mL | > 16 µg/mL | > 64 µg/mL | > 64 µg/mL | – | – | – | Fc1ccccc1-c1ccc(C2=NC(Cn3cncn3)(c3cccc(Cl)c3)CO2)cc1 (centres undefined) | – | –
8 µg/mL (≈ 20.1 µM) | 0.25 µg/mL (≈ 0.627 µM) | > 64 µg/mL | > 16 µg/mL | > 64 µg/mL | > 64 µg/mL | – | – | – | Fc1ccc(-c2ccc(C3=NC(Cn4cncn4)(c4ccccc4)CO3)cc2)cc1 (centres undefined) | – | –
